The values below come from patent US20050277622A1, “1-Calcium phosphate-uracil and method for preparing thereof” (priority 2004, published 2005).

Holding throughout (type): in vivo, human
Experiment [1] can be described thus: Clinical Case 1: continued bad cough not susceptive to antibiotics therapy. Particulars: person two, oral, 15 mg per day for 5 days. The method, then: person two, who had been suffering from a continued bad cough for 2 months and not susceptive to antibiotics therapy, was administrated orally with medicament of 1-calcium phosphate-uracil for 5 days, 15 mg per day.

Experiment [2] is described as follows: Clinical Case 2: cough, hyperplasia of prostate and constipation. To be noted: person one, oral, 15 mg per day for 5 days. As for the experimental part:
person one, who had been suffering from cough for about 50 years and hyperplasia of prostate for 7 years and recently relapsed into continued cough for 15 days and constipation, was administrated orally with medicament of 1-calcium phosphate-uracil for 5 days, 15 mg per day.

Experiment [3] in a line: Clinical Case 3: cold with fever of 39° C. To be noted: person, oral, 15 mg per day for 1 day. From the text:
Therapeutic effect: fever was allayed after 1 day and symptom of cough disappeared after 2 days.

The nature of experiment [4]: Clinical Case 4: fever of 40.5° C. Particulars: person, oral, 15 mg one time per day for 1 day. From the text: Therapeutic effect: fever was allayed after 1 day and symptom of cough disappeared after 3 days.
Experiment [5] deals with influenza. Kind of experiment: Clinical Case 5: administration in advance during influenza period. Particulars: 2 of 8 persons in a dormitory, oral in advance, 15 mg one time per day for 1 day; other 6 persons all infected.
Experiment [6] concerns influenza. Kind of experiment: Clinical Case 5: treatment of persons infected with influenza. Particulars: 2 infected persons, oral, 15 mg one time per day for 3 days. The method, then:
One day after infection, 2 of 6 infected persons were administrated orally with medicament of 1-calcium phosphate-uracil for 3 day, one time per day, 15 mg each time. Therapeutic effect: fever was allayed after 1 day and symptom of cough faded away after 3 days. Instead of being administrated with medicament of 1-calcium phosphate-uracil, the other 4 infected persons were treated according to conventional therapeutic regimen, recovered until after 15 days.

Experiment [7] in a line: Clinical Case 6: constipation for about 10 years. Particulars: 4 persons, 1-2 times a week on conventional drugs; oral, 12 mg˜15 mg one time per day for 1 day. From the text:
4 persons, who had suffered from constipation for about 10 years, defecated 1-2 times a week when administrated with conventional drugs.

Experiment [8] is described as follows: Clinical Case 7: frequent premature beat, cardiac distress and constipation. Particulars: person, oral. As for the experimental part: A person, who had suffered from frequent premature beat, cardiac distress for 3 years and constipation for 5 years, was administrated orally with medicament of 1-calcium phosphate-uracil for 20 days, 13 mg per day.
The therapeutic effect: the symptoms of palpitation premature beat and cardiac distress disappeared completely after 20 days from administration and constipation symptom disappeared after 1 day from administration.

A short description of experiment [9]: Clinical Case 8: sleeping and stamina. Particulars: 20 persons aging 12˜70 years; 15 mg per day for one day. An excerpt:
The medicament can ameliorate sleeping and supplement stamina.

Experiment [10] in a line: Clinical Case 9: liver cancer in a most serious stage. To be noted: person; oral, 15 mg one time per day for 10 months. The method, then: A person, who suffered liver cancer in a most serious stage, was administrated orally with medicament of 1-calcium phosphate-uracil for 10 months, one time per day, 15 mg each time.
Therapeutic effect: liver tumor was disappeared upon the examination of CT.

For 1-calcium phosphate-uracil, the symptom of cough result in experiment [1] (cough for 2 months) is given as “cured completely”. In addition, the “symptom of incontinence of urine” value in experiment [1] is “disappeared”. In experiment [2] (continued cough for 15 days), the cough symptom entry is “alleviated”. Besides, the frequency of nocturia entry in [2] (hyperplasia of prostate for 7 years) was “decreased significantly”. For the same substance, the constipation entry in experiment [2] is listed as “disappeared”. The “fever was allayed after” value (in experiment [3] (fever of 39° C.); in [4] (fever of 40.5° C.); in the experiment with influenza [6] (one day after infection)) was 1 days throughout. The “symptom of cough disappeared after” value is listed as 2 days in [3] and 3 days in experiment [4]. Also, the infection with influenza result in the experiment with influenza [5] was “not infected with influenza”. Moreover, the “symptom of cough faded away after” value with influenza [6] (conventional regimen recovered after 15 days) was found to be 3 days. For the same substance, the defecation entry in experiment [7] is “defecated smoothly, once a day”. The “constipation symptom disappeared after” value in experiment [8] (constipation for 5 years, 13 mg per day) worked out at 1 days. The “symptoms of palpitation premature beat and cardiac distress disappeared completely after” value in experiment [8] (13 mg per day for 20 days) turned out to be 20 days. Also, the “sleeping on the same day” value in [9] was “good sleeping”. Moreover, the “stamina in the next day” value in [9] was “full of vigor”. In experiment [10], the “liver tumor upon the examination of CT” value is recorded as “disappeared”.
